From paper PMC5013068, “Fragment-Based Whole Cell Screen Delivers Hits against M. tuberculosis and Non-tuberculous Mycobacteria” (Frontiers in Microbiology, 2016) come the findings set out here.

Each structure is given as a SMILES string. Converted amounts (≈) assume the structure as drawn.

For data set [1], the system named is Candida albicans (ATCC 90028). In words: Antifungal growth inhibition, C. albicans. It is filed as cell-based. The note with it: ATCC90028, twofold serial dilution, max 100 μM, 24 h, read-out: C. albicans Growth Inhibition Spectrum (MIC80).
Data set [2] concerns Red blood cells. In words: Hemolytic activity (red blood cell lysis assay). The note with it: for RBC SI: selectivity index vs M. tuberculosis MIC50; for RBC HC50: hemolysis, 24 h in PBS, unit not given, same scale as MIC50, i not defined.
Data set [3] is described as follows: MTS cytotoxicity assay, A549. The following applies: human, A549 cells (ATCC CCL-185).
Data set [4] concerns A549 (ATCC CCL-185) cells. In words: MTS cytotoxicity assay, A549. The following applies: selectivity index vs M. tuberculosis MIC50.
Data set [5] relates to Cryptococcus neoformans (ATCC 208821). In words: Antifungal growth inhibition, C. neoformans. It is filed as cell-based. The note with it: ATCC208821, twofold serial dilution, max 100 μM, 24 h, resazurin, read-out: C. neoformans Growth Inhibition Spectrum (MIC80).
In data set [6] the test system is M. bovis BCG (ATCC 35734). In words: microbe, parasite or virus in culture. The following applies: for MIC50: Mycobacterium tuberculosis variant bovis BCG, 120 h, read-out: M. bovis BCG MIC50, 7H9 broth, 5 days, OD600. It is filed as cell-based.
Data set [7] concerns M. avium 11. Kind of data set: Growth inhibition dose response against M. avium. The note with it: Mycobacterium avium, 11, 120 h; 5 days, max 500 μM. It is filed as cell-based.
Data set [8] in a line: MTS cytotoxicity assay, HepG2. The note with it: human, HepG2 cells (ATCC HB.8065).
The test system of data set [9] is HepG2 (ATCC HB.8065) cells. In words: MTS cytotoxicity assay, HepG2. The note with it: selectivity index vs M. tuberculosis MIC50.
Data set [10] relates to Mycobacterium tuberculosis H37Rv (ATCC 27294). Kind of data set: Growth inhibition dose response against M. tuberculosis. The following applies: 7H9 broth, OD600, twofold serial dilution from 500 μM. It is filed as cell-based.
In data set [11] the test system is Klebsiella pneumoniae (ATCC 700603, MDR). In words: microbe, parasite or virus in culture. It is filed as cell-based. The following applies: ATCC700603, 18 h, read-out: K. pneumoniae Growth Inhibition Spectrum (MIC80).
Data set [12] relates to Escherichia coli (ATCC 25922). In words: Antibacterial growth inhibition, E. coli. It is filed as cell-based. The note with it: ATCC25922, twofold serial dilution, max 100 μM, 18 h, read-out: E. coli Growth Inhibition Spectrum (MIC80).
Data set [13] has as its system Pseudomonas aeruginosa (ATCC 27853). In words: Antibacterial growth inhibition, P. aeruginosa. It is filed as cell-based. The following applies: ATCC27853, twofold serial dilution, max 100 μM, 18 h, read-out: P. aeruginosa Growth Inhibition Spectrum (MIC80).
The test system of data set [14] is M. abscessus Bamboo (smooth morphotype). In words: Growth inhibition dose response against M. abscessus. It is filed as cell-based. The note with it: Mycobacteroides abscessus, 72 h; 3 days, max 500 μM.
The subject of data set [15] is Staphylococcus aureus (ATCC 43300, MRSA). In words: microbe, parasite or virus in culture. It is filed as cell-based. The note with it: 18 h, read-out: S. aureus Growth Inhibition Spectrum (MIC80).
The test system of data set [16] is Acinetobacter baumannii (ATCC 19606). In words: Antibacterial growth inhibition, A. baumannii. It is filed as cell-based. The following applies: ATCC19606, twofold serial dilution, max 100 μM, 18 h, read-out: A. baumannii Growth Inhibition Spectrum (MIC80).

In the case of `CC1CC(N)=NN1c1ccc(Cl)cn1` (centres unmarked) [Fragment 8], the MIC80 is 100 µM (≈ 21.1 µg/mL) in data set [1]; greater than 100 µM in data set [5]; greater than 100 µM in data set [11]; 100 µM (≈ 21.1 µg/mL) in data set [12]; greater than 100 µM in data set [13]; greater than 100 µM in data set [15]. Further, in [16], the MIC80 came to 100 µM (≈ 21.1 µg/mL). Also, the “RBC SI” value in data set [2] is given as greater than 20. Also, the results for the CC50 in [3] and in [8] were greater than 2500 µM and 900 µM, respectively. Also, in data set [4], the “A549 SI” value is greater than 20. Moreover, the MIC50 in [6] was 13 µM (≈ 2.74 µg/mL); in data set [7], 275 µM (≈ 57.9 µg/mL); in [10], 123 µM (≈ 25.9 µg/mL); in data set [14], greater than 500 µM. Further, the “HepG2 SI” value in data set [9] is recorded as 7.
On to `Cc1cc2nc(CN)[nH]c2cc1C` [Fragment 10], for which the MIC80 in data set [1], in [5], in data set [11], in [12], in data set [13] and in data set [15] was greater than 100 µM each time. Besides, the MIC80 in data set [16] was greater than 100 µM. The “RBC HC50” value in data set [2] came to 2100. Also, in data set [2], the “RBC SI” value amounted to 16. Also, the CC50 in data set [3] amounted to 1900 µM; in data set [8] it was 900 µM. Further, in data set [4], the “A549 SI” value was 15. Also, the MIC50 in data set [6] was 53 µM (≈ 9.29 µg/mL); in data set [7] it was greater than 500 µM; in [10], 131 µM (≈ 23 µg/mL); in data set [14], greater than 500 µM. For the same compound, in data set [9], the “HepG2 SI” value was determined as 7.
Regarding `Cc1nc(-c2c[nH]c3ccccc23)cs1` [Fragment 9], the MIC80 in [1], in data set [5], in data set [11], in [12], in data set [13] and in data set [15] was greater than 100 µM each time. For the same compound, in data set [16], the MIC80 was greater than 100 µM. Moreover, the “RBC SI” value in data set [2] is recorded as greater than 18. In addition, the figures for the CC50 in data set [3] and in data set [8] were greater than 2500 µM and 500 µM, respectively. In data set [4], the “A549 SI” value was greater than 20. Besides, the MIC50 is 39 µM (≈ 8.36 µg/mL) in [6], greater than 500 µM in [7], 126 µM (≈ 27 µg/mL) in [10] and greater than 500 µM in [14]. For the same compound, the “HepG2 SI” value in [9] amounted to 4.
As to `Clc1ccc(Oc2cnns2)c2ncccc12` [Fragment 2], the MIC80 in data set [1], in [5], in data set [11], in data set [12], in data set [13] and in [15] was greater than 100 µM each time. Besides, the MIC80 in data set [16] was greater than 100 µM. Also, the “RBC HC50” value in [2] worked out at 250. The CC50 in data set [3] was greater than 2500 µM; in data set [8], 200 µM. Further, the “A549 SI” value in data set [4] is greater than 7. Also, the MIC50 in [6] was 56 µM (≈ 14.8 µg/mL); in data set [7] it was 130 µM (≈ 34.3 µg/mL); in data set [10], 43 µM (≈ 11.3 µg/mL); in data set [14] it was greater than 500 µM.
For the compound `Cc1c(C)n(CC(O)CNC2CCCC2)c2c(Cl)cccc12` (centres unmarked) [Fragment 4], the MIC80 in data set [1], in data set [5], in data set [11], in data set [12], in data set [13] and in data set [15] was greater than 100 µM each time. Also, in data set [16], the MIC80 was greater than 100 µM. For the same compound, the “RBC HC50” value in data set [2] was 125. Besides, the figures for the CC50 in [3] and in data set [8] were 60 µM and 45 µM, respectively. In addition, the MIC50 is 56 µM (≈ 18 µg/mL) in [6], 53 µM (≈ 17 µg/mL) in [7], 55 µM (≈ 17.6 µg/mL) in data set [10] and 125 µM (≈ 40.1 µg/mL) in data set [14].
With `COn1c(-c2ccc(Cl)cc2)nc2ncccc21` [Fragment 7], the MIC80 in [1], in data set [5], in [11], in [12], in data set [13] and in [15] was greater than 100 µM each time. Moreover, in [16], the MIC80 is greater than 100 µM. In addition, in data set [2], the “RBC SI” value was greater than 23. For the same compound, the CC50 was found to be 1800 µM in data set [3] and 850 µM in [8]. The “A549 SI” value in [4] was found to be 17. For the same compound, the MIC50 was 19 µM (≈ 4.93 µg/mL) in data set [6], 145 µM (≈ 37.7 µg/mL) in data set [7], 104 µM (≈ 27 µg/mL) in data set [10] and 150 µM (≈ 39 µg/mL) in data set [14]. Besides, the “HepG2 SI” value in data set [9] turned out to be 8.
With `O=C(c1cc2cc(F)ccc2s1)N1CCC1` [Fragment 5], the MIC80 in [1], in data set [5], in data set [11], in [12], in data set [13] and in data set [15] was greater than 100 µM throughout. The MIC80 in [16] is greater than 100 µM. Moreover, the “RBC SI” value in data set [2] is recorded as greater than 41. The CC50 in data set [3] and in [8] was greater than 2500 µM in each case. Also, the “A549 SI” value in data set [4] is given as greater than 41. For the same compound, the MIC50 in data set [6] was 68 µM (≈ 16 µg/mL); in data set [7], greater than 500 µM; in data set [10] it was 60 µM (≈ 14.1 µg/mL); in data set [14] it was greater than 500 µM. In [9], the “HepG2 SI” value is greater than 41.
Regarding `N#CSC1C=CS(=O)(=O)C1` (centres unmarked) [Fragment 6], the MIC80 was 100 µM (≈ 17.5 µg/mL) in data set [1]; greater than 100 µM in [5]; greater than 100 µM in data set [11]; greater than 100 µM in data set [12]; greater than 100 µM in data set [13]; 100 µM (≈ 17.5 µg/mL) in data set [15]. For the same compound, the MIC80 in data set [16] was found to be 100 µM (≈ 17.5 µg/mL). For the same compound, the “RBC HC50” value in data set [2] turned out to be 2200. The “RBC SI” value in data set [2] is reported as 24. Further, the CC50 was found to be 1000 µM in data set [3] and 75 µM in data set [8]. Also, the “A549 SI” value in data set [4] was determined as 11. Also, the MIC50 in data set [6] is 53 µM (≈ 9.29 µg/mL); in data set [7], greater than 500 µM; in data set [10] it was 92 µM (≈ 16.1 µg/mL); in data set [14], greater than 500 µM.
Turning to `COc1cccc2sc(S(C)(=O)=O)nc12` [Fragment 3], the MIC80 in data set [1], in data set [5], in data set [11], in [12], in data set [13] and in data set [15] was greater than 100 µM each time. Besides, the MIC80 in [16] is greater than 100 µM. The “RBC SI” value in [2] was greater than 13. Besides, the MIC50 was 20 µM (≈ 4.87 µg/mL) in [6], greater than 500 µM in data set [7], 52 µM (≈ 12.7 µg/mL) in data set [10] and greater than 500 µM in [14].
On to `CCNc1nc(C)nc2sc(CC)cc12` [Fragment 1], for which the MIC80 in [1], in data set [5], in [11], in data set [12], in [13] and in data set [15] was greater than 100 µM in each case. Also, the MIC80 in data set [16] was greater than 100 µM. The “RBC SI” value in data set [2] is greater than 24. The CC50 in [3] and in data set [8] was greater than 2500 µM throughout. The “A549 SI” value in data set [4] was greater than 24. The “M. bovis BCG MIC50” value in data set [6] (7H9 broth, 5 days, OD600) came out at 4.5 µM. Moreover, the MIC50 in data set [6] was 5 µM (≈ 1.11 µg/mL); in data set [7], greater than 500 µM; in data set [10] it was 40 µM (≈ 8.85 µg/mL); in data set [14], greater than 500 µM. The “HepG2 SI” value in data set [9] is given as greater than 24.
